Where “and” joins values, the source holds several entries; their conditions need not be identical. Equal values may be shown once. Read-outs that look alike come from different tables or passages of the source.
How the values were obtained:
[1] = biological target: T1, CDK12–cyclin K and DDB1 (Homo sapiens, UniProt Q16531+Q9NYV4, K965R); assay: TR-FRET ternary complex formation assay (compound titration); format: binding; details: for TR-FRET signal at compound concentration: replicate titrations
T1 construct: His6–CDK12 (a.a. 713–1,052); full-length or beta-propeller B domain deletion (ΔBPB: a.a. 396–705 deleted) constructs of His6–DDB1ΔBPB, StrepII–Avi–DDB1, or His6–Spy–DDB1; made in house; host or cells: Trichoplusia ni High Five insect cells (baculovirus)
T1 sequence (Q9NYV4 713-1052 K965R): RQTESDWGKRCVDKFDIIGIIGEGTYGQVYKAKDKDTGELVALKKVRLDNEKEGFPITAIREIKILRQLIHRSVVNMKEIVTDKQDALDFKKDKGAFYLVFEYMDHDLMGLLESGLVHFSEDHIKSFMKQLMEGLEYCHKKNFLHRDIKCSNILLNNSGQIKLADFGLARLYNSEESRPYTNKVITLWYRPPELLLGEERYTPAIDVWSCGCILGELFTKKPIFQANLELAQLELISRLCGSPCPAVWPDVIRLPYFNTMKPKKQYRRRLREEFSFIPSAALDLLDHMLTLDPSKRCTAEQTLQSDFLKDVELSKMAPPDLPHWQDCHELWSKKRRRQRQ
T1 sequence (O75909 1-267 partner): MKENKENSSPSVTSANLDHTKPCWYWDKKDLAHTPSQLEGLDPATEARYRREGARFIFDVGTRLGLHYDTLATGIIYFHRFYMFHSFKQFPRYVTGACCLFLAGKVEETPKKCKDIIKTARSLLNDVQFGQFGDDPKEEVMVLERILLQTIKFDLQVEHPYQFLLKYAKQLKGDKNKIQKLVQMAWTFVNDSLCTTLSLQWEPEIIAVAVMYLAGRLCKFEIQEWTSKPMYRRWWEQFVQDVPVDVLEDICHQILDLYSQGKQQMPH
T1 sequence (Q16531 whole entry): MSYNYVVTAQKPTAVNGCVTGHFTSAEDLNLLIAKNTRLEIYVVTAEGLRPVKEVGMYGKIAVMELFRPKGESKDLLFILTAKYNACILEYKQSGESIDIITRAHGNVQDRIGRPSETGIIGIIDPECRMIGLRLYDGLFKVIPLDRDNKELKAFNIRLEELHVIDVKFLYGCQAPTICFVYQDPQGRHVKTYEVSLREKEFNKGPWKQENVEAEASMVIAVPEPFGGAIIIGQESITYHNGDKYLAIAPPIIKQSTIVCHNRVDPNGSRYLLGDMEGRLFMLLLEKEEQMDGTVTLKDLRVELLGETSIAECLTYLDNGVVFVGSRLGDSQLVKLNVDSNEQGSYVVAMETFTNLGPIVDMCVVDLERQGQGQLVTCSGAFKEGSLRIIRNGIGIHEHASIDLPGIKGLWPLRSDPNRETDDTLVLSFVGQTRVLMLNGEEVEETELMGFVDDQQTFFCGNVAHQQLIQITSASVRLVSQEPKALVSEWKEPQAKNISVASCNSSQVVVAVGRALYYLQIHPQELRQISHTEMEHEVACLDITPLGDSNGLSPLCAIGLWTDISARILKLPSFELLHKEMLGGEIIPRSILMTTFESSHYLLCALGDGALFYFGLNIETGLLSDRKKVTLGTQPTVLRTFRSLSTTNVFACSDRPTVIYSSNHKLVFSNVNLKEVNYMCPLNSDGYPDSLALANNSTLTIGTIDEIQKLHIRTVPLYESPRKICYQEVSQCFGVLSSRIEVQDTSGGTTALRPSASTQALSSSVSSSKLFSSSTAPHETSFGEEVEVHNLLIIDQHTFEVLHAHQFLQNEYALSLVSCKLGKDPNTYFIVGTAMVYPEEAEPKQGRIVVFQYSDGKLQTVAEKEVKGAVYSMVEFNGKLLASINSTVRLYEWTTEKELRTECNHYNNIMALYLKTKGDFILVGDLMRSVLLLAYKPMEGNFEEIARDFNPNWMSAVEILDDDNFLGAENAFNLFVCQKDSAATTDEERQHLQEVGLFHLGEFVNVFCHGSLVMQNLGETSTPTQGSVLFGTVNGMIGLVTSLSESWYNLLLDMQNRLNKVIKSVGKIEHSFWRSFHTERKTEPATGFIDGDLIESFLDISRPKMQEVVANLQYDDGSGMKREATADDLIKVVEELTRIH
How it was run: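 Delayed (70 μs) time-resolved read; FRET computed as 520 nm over 490 nm emission.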

[2] = tested on: cyclin K–eGFP degradation reporter; assay: Cyclin K reporter stability analysis (dual-color cyclin K–eGFP reporter); format: cell-based, human
How it was run: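 Cells (HEK293T–Cas9, reporter-expressing) at 1 × 10^6 ml^−1; 5 h compound or DMSO; flow cytometry; gMFI eGFP ÷ mCherry on round mCherry-positive events; normalized to 3 DMSO controls.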

[3] = tested on: HEK293T cells; assay: Drug sensitivity assay (CellTiter-Glo viability) with or without MLN4924 pretreatment; format: cell-based, human; details: for EC50: Homo sapiens, HEK-293T; for Toxicity rescue: MLN4924-mediated cytotoxicity rescue, 10 µM used where n.d.
How it was run: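 Viability of HEK293T–Cas9 cells was compared after 3-day drug treatment with or without 100 nM MLN4924 pretreatment (2 h, versus DMSO). Values are CellTiter-Glo signals relative to DMSO controls.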

[4] = Supplementary Table 2, HEK293T cycK-eGFP reporter, 5 h, read-out: Cellular assays DC50
[5] = Supplementary Table 2, HEK293T viability, 72 h, compound alone, read-out: Cellular assays EC50
[6] = compound concentration 79.2001 nM
[7] = compound concentration 158.4 nM
[8] = compound concentration 309.6 nM
[9] = compound concentration 626.401 nM
[10] = compound concentration 1252.8 nM
[11] = compound concentration 9936.01 nM
[12] = compound concentration 20016 nM
[13] = in vitro complex formation, 50 nM CDK12–cyclin K, 100 nM DDB1, text and figures, read-out: TR-FRET EC50

SMILES: CN(C)C/C=C/C(=O)Nc1ccc(C(=O)N2CCC[C@@H](Nc3ncc(Cl)c(-c4c[nH]c5ccccc45)n3)C2)cc1 [THZ531, reference compound]
- TR-FRET signal at compound concentration 4.68 nM ([1]; compound concentration 4.68 nM, raw replicate titration data): 0.1294 and 0.1297
- TR-FRET signal at compound concentration 21.6 nM ([1]; compound concentration 21.6 nM, raw replicate titration data): 0.1203 and 0.1454
- TR-FRET signal at compound concentration 36 nM ([1]; compound concentration 36 nM, raw replicate titration data): 0.1008 and 0.09563
- TR-FRET signal at compound concentration 79.2001 nM ([1]; compound concentration 79.2001 nM, raw replicate titration data): 0.09205 and 0.08033
- TR-FRET signal at compound concentration 158.4 nM ([1]; compound concentration 158.4 nM, raw replicate titration data): 0.08734 and 0.07305
- TR-FRET signal at compound concentration 309.6 nM ([1]; compound concentration 309.6 nM, raw replicate titration data): 0.08584 and 0.06932
- TR-FRET signal at compound concentration 626.401 nM ([1]; compound concentration 626.401 nM, raw replicate titration data): 0.07997 and 0.06847
- TR-FRET signal at compound concentration 1252.8 nM ([1]; compound concentration 1252.8 nM, raw replicate titration data): 0.0797 and 0.06911
- TR-FRET signal at compound concentration 2448 nM ([1]; compound concentration 2448 nM, raw replicate titration data): 0.07318 and 0.06928
- TR-FRET signal at compound concentration 9936.01 nM ([1]; compound concentration 9936.01 nM, raw replicate titration data): 0.07478 and 0.06588
- TR-FRET signal at compound concentration 20016 nM ([1]; compound concentration 20016 nM, raw replicate titration data): 0.07606 and 0.06434
- DC50 [2, 4]: > 10 µM
- EC50 [3, 5]: 271 nM
- Toxicity rescue ([3]; Supplementary Table 2): -22%

SMILES: CC[C@H](CO)Nc1nc(NCCCCc2ccccc2)c2ncn(C(C)C)c2n1 [DS09]
- EC50 ([1]; Supplementary Table 2, read-out: TR-FRET EC50 TR-FRET): 349 nM
- fold lower affinity than DS11 ([1]; TR-FRET complex formation): 5-10 fold
- TR-FRET signal ([1]; compound concentration 4.68 nM): 0.1538 and 0.1597
- TR-FRET signal at compound concentration ([1]; compound concentration 4.68 nM): 0.1538 and 0.1597
- TR-FRET signal ([1]; compound concentration 21.6 nM): 0.2215 and 0.2268
- TR-FRET signal at compound concentration ([1]; compound concentration 21.6 nM): 0.2215 and 0.2268
- TR-FRET signal ([1]; compound concentration 36 nM): 0.3624 and 0.3872
- TR-FRET signal at compound concentration ([1]; compound concentration 36 nM): 0.3624 and 0.3872
- TR-FRET signal [1, 6]: 0.5721 and 0.6282
- TR-FRET signal at compound concentration [1, 6]: 0.5721 and 0.6282
- TR-FRET signal [1, 7]: 0.8913 and 0.9385
- TR-FRET signal at compound concentration [1, 7]: 0.8913 and 0.9385
- TR-FRET signal [1, 8]: 1.311 and 1.295
- TR-FRET signal at compound concentration [1, 8]: 1.311 and 1.295
- TR-FRET signal [1, 9]: 1.632 and 1.6565
- TR-FRET signal at compound concentration [1, 9]: 1.632 and 1.6565
- TR-FRET signal [1, 10]: 1.8858 and 2.021
- TR-FRET signal at compound concentration [1, 10]: 1.8858 and 2.021
- TR-FRET signal ([1]; compound concentration 2448 nM): 2.206 and 2.209
- TR-FRET signal at compound concentration ([1]; compound concentration 2448 nM): 2.206 and 2.209
- TR-FRET signal [1, 11]: 2.4811 and 2.469
- TR-FRET signal at compound concentration [1, 11]: 2.4811 and 2.469
- TR-FRET signal [1, 12]: 2.543 and 2.456
- TR-FRET signal at compound concentration [1, 12]: 2.543 and 2.456
- EC50 [1, 13]: 349 ± 15 nM
- EC50 ([1]; sheet MOESM7, read-out: log TR-FRET EC50 (converted)): 349 nM
- DC50 [2, 4]: > 10 µM
- EC50 [3, 5]: > 10000 nM
- Toxicity rescue ([3]; Supplementary Table 2): 0%

SMILES: CCCCN(CCCC)CCCNc1nc(N[C@H](CC)CO)nc2c1ncn2C(C)C [DS36]
- TR-FRET signal, individual replicate ([1]; compound concentration 4.68 nM): 0.2097 and 0.2275
- TR-FRET signal, individual replicate ([1]; compound concentration 21.6 nM): 0.2087 and 0.2297
- TR-FRET signal, individual replicate ([1]; compound concentration 36 nM): 0.2089 and 0.2353
- TR-FRET signal, individual replicate [1, 6]: 0.2163 and 0.2368
- TR-FRET signal, individual replicate [1, 7]: 0.2165 and 0.2428
- TR-FRET signal, individual replicate [1, 8]: 0.2214 and 0.244
- TR-FRET signal, individual replicate [1, 9]: 0.2373 and 0.2728
- TR-FRET signal, individual replicate [1, 10]: 0.2487 and 0.3013
- TR-FRET signal, individual replicate ([1]; compound concentration 2448 nM): 0.2879 and 0.3168
- TR-FRET signal, individual replicate [1, 11]: 0.3262 and 0.358
- TR-FRET signal, individual replicate [1, 12]: 0.3249 and 0.3501
- DC50 [2, 4]: > 10 µM
- EC50 [3, 5]: > 10000 nM
- Toxicity rescue ([3]; Supplementary Table 2): 0%

SMILES: CC[C@H](CO)Nc1nc(NCc2ccc(OCCO)cc2)c2ncn(C(C)C)c2n1 [DS61]
- TR-FRET signal ([1]; compound concentration 4.68 nM): 0.1556 and 0.1596
- TR-FRET signal ([1]; compound concentration 21.6 nM): 0.2553 and 0.252
- TR-FRET signal ([1]; compound concentration 36 nM): 0.4296 and 0.427
- TR-FRET signal [1, 6]: 0.6728 and 0.6901
- TR-FRET signal [1, 7]: 0.9753 and 0.9579
- TR-FRET signal [1, 8]: 1.242 and 1.248
- TR-FRET signal [1, 9]: 1.483 and 1.517
- TR-FRET signal [1, 10]: 1.637 and 1.718
- TR-FRET signal ([1]; compound concentration 2448 nM): 1.781 and 1.804
- TR-FRET signal [1, 11]: 1.87 and 1.831
- TR-FRET signal [1, 12]: 1.812 and 1.801
- EC50 [1, 13]: 169 ± 7 nM
- EC50 ([1]; source data sheet correlations, read-out: TR-FRET EC50): 168 nM
- DC50 ([2]; source data sheet correlations, read-out: DC50): 0.917 µM
- EC50 ([3]; Supplementary Fig. 5, HEK293T, CellTiter Glo, 72h, read-out: Viability EC50, no MLN4924): 281 nM
- EC50 [3, 5]: 283 nM
- Toxicity rescue ([3]; Supplementary Table 2): 278%
